Where two headings read alike, the source gives them in different places.
What was measured:
HCV NS5B = target: T1, HCV NS5B (Hepatitis C virus genotype 1b, UniProt Q9WMX2); test: HCV NS5B RdRp enzyme assay (standard / modified); assay type: biochemical
T1 construct: The protein was expressed with an 18 amino acid C-terminal truncation to enhance the solubility; made in house; host or cells: E. coli BL21 (DE3)
Summary of the method: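 NS5B genotype 1b, 18-aa C-terminal truncation, E. coli-expressed; polyA template with biotinylated oligo-dT12 primer, 3H-UTP 0.29 μM, 30° C, SPA read-out in 20 mM Hepes pH 7.5, 2% DMSO. Standard: 28 nM enzyme, 6 nM template, 180 nM primer, 60 min; modified: 14 nM enzyme, 0.2 nM template, 20 nM bead-precaptured primer, 4 h. IC50 from seven concentrations.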

HCV replicon cells = test: HCV replicon FRET / luciferase assay; assay type: cell-based; conditions: Hepatitis C virus
Description: FRET Assay Preparation. To perform the HCV FRET screening assay, 96-well cell culture plates were used. The FRET peptide (Anaspec, Inc.) (Taliani et al., Anal. Biochem. 1996, 240, 60-67) contains a fluorescence donor, EDANS, near one end of the peptide and an acceptor, DABCYL, near the other end. The fluorescence of the peptide is quenched by […] resonance energy transfer (RET) between the donor and the acceptor, but as the NS3 protease cleaves the peptide the products are released from RET quenching and the fluorescence of the donor becomes apparent. The assay reagent was made as follows: 5× cell Luciferase cell culture lysis reagent from Promega (#E153A) diluted to 1× with dH2O, NaCl added to 150 mM final, the FRET peptide diluted to 20 μM final from a 2 mM stock.
To prepare plates, HCV replicon cells, with or without a Renilla luciferase reporter gene, were trypsinized and placed into each well of a 96-well plate with titrated test compounds added in columns 3 through 12; columns 1 and 2 contained a control compound (HCV protease inhibitor), and the bottom row contained cells without compound. The plates were then placed in a CO2 incubator at 37° C.
Assays. Subsequent to addition of the test compounds described above (FRET Assay Preparation), at various times the plate was removed and Alamar blue solution (Trek Diagnostics, #00-100) was added per well as a measure of cellular toxicity. After reading in a Cytoflour 4000 instrument (PE Biosystems), plates were rinsed with PBS and then used for FRET assay by the addition of 30 ul of the FRET peptide assay reagent described above (FRET Assay Preparation) per well. The plate was then placed into the Cytoflour 4000 instrument which had been set to 340 excite/490 emission, automatic mode for 20 cycles and the plate read in a kinetic mode. Typically, the signal to noise using an endpoint analysis after the reads was at least three-fold. Alternatively, after Alamar blue reading, plates were rinsed with PBS, 50 ul of DMEM (high glucose) without phenol red was added and plates were then used for luciferase assay using the Promega Dual-Glo Luciferase Assay System.
Compound analysis was determined by quantification of the relative HCV replicon inhibition and the relative cytotoxicity values. To calculate cytoxicity values, the average Alamar Blue fluorescence signals from the control wells were set as 100% non-toxic. The individual signals in each of the compound test wells were then divided by the average control signal and multiplied by 100% to determine […]. To calculate the HCV replicon inhibition values, an average background value was obtained from the two wells containing the highest amount of HCV protease inhibitor at the end of the assay period. These numbers were similar to those obtained from naïve Huh-7 cells.
The background numbers were then subtracted from the average signal obtained from the control wells and this number was used as 100% activity. The individual signals in each of the compound test wells were then divided by the averaged control values after background subtraction and multiplied by 100% to determine percent activity. EC50 values for a protease inhibitor titration were calculated as the concentration which caused a 50% reduction in FRET or luciferase activity. The two numbers generated for the compound plate, percent cytoxicity and percent activity were used to determine compounds of interest for further analysis.

[1] = HCV RdRp genotype 1b enzyme, read-out: IC50
[2] = HCV replicon cells, FRET or luciferase readout, read-out: EC50

T1 sequence (Q9WMX2 2420-2992): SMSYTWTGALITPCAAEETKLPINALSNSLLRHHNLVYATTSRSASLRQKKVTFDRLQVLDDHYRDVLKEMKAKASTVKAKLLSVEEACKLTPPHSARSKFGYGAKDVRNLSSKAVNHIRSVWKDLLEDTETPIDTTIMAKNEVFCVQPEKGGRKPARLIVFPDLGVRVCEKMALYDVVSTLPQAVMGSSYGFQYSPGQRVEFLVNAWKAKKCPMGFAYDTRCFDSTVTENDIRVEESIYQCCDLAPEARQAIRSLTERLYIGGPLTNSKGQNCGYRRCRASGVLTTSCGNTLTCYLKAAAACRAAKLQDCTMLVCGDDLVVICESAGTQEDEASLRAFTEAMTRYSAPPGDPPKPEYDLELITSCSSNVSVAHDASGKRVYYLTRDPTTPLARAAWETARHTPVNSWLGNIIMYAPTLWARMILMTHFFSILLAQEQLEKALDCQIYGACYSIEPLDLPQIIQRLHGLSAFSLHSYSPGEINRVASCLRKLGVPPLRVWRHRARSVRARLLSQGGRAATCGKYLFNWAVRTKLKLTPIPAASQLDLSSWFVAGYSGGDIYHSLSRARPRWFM

SMILES | IC50 (HCV NS5B; [1]) [nM] | EC50 (HCV replicon cells; [2]) [nM] | IC50 (HCV NS5B) [nM] | EC50 (HCV replicon cells) [nM]
COc1ccc2c(c1)C=C(c1ccsc1C(=O)N1CCOCC1)Cn1c-2c(C2CCCCC2)c2ccc(C(=O)NS(=O)(=O)N(C)C)cc21 | 1 to 500 | 1 to 500 | – | –
COc1ccc2c(c1)C=C(c1c(C(=O)N3CCOCC3)cnn1C(C)C)Cn1c-2c(C2CCCCC2)c2ccc(C(=O)O)cc21 | 1 to 500 | 1 to 500 | – | –
COc1ccc2c(c1)C=C(c1c(C(=O)N3C4CCC3CC4)cnn1C)Cn1c-2c(C2CCCCC2)c2ccc(C(=O)NS(=O)(=O)N3CCOCC3)cc21 | – | – | 1 to 500 | 1 to 500
COc1ccc2c(c1)C=C(c1c(C(=O)N3[C@@H]4CC[C@H]3CN(C)C4)cnn1C)Cn1c-2c(C2CCCCC2)c2ccc(C(=O)NS(=O)(=O)N3CCOCC3)cc21 | – | – | 1 to 500 | 1 to 500
COc1ccc2c(c1)C=C(c1c(C(=O)N3C[C@H]4CC[C@@H](C3)N4C)cnn1C)Cn1c-2c(C2CCCCC2)c2ccc(C(=O)NS(=O)(=O)N3CCOCC3)cc21 | – | – | 1 to 500 | 1 to 500
COCCN(C(=O)c1cnn(C)c1C1=Cc2cc(OC)ccc2-c2c(C3CCCCC3)c3ccc(C(=O)NS(=O)(=O)N4CCOCC4)cc3n2C1)C(C)C | 1 to 500 | 1 to 500 | – | –
COc1ccc2c(c1)C=C(c1c(C(=O)N(C)CCN(C)C)cnn1C)Cn1c-2c(C2CCCCC2)c2ccc(C(=O)NS(=O)(=O)N3CCOCC3)cc21 | 1 to 500 | 1 to 500 | – | –
COc1ccc2c(c1)C=C(c1c(C(=O)N3CCC(N4CCCC4)CC3)cnn1C)Cn1c-2c(C2CCCCC2)c2ccc(C(=O)NS(=O)(=O)N3CCOCC3)cc21 | 1 to 500 | > 500 | – | –
COC[C@@H]1CN(C(=O)c2cnn(C)c2C2=Cc3cc(OC)ccc3-c3c(C4CCCCC4)c4ccc(C(=O)NS(=O)(=O)N5CCOCC5)cc4n3C2)CCO1 | 1 to 500 | 1 to 500 | – | –
COc1ccc2c(c1)C=C(c1c(C(=O)N3C[C@@H](C)N(C)[C@@H](C)C3)cnn1C)Cn1c-2c(C2CCCCC2)c2ccc(C(=O)NS(=O)(=O)N3CCOCC3)cc21 | 1 to 500 | 1 to 500 | – | –
COc1ccc2c(c1)C=C(c1c(C(=O)N3CCC(N(C)C)C3)cnn1C)Cn1c-2c(C2CCCCC2)c2ccc(C(=O)NS(=O)(=O)C(C)C)cc21 (centres unmarked) | 1 to 500 | 1 to 500 | – | –
COc1ccc2c(c1)C=C(c1c(C(=O)N3CCOCC3)cnn1C)Cn1c-2c(C2CCCCC2)c2ccc(C(=O)NS(=O)(=O)C(C)C)cc21 | 1 to 500 | 1 to 500 | – | –
COc1ccc2c(c1)C=C(c1c(C(=O)N3CCN4CCCC4C3)cnn1C)Cn1c-2c(C2CCCCC2)c2ccc(C(=O)NS(=O)(=O)C(C)C)cc21 (centres unmarked) | 1 to 500 | 1 to 500 | – | –
CCN1C[C@@H]2C[C@H]1CN2C(=O)c1cnn(C)c1C1=Cc2cc(OC)ccc2-c2c(C3CCCCC3)c3ccc(C(=O)NS(=O)(=O)C(C)C)cc3n2C1 | 1 to 500 | 1 to 500 | – | –
COc1ccc2c(c1)C=C(c1c(C(=O)N3CCN(C)CC3)cnn1C)Cn1c-2c(C2CCCCC2)c2ccc(C(=O)NS(=O)(=O)C(C)C)cc21 | 1 to 500 | 1 to 500 | – | –
COc1ccc2c(c1)C=C(c1c(C(=O)N3CCN(C(C)C)CC3)cnn1C)Cn1c-2c(C2CCCCC2)c2ccc(C(=O)NS(=O)(=O)C(C)C)cc21 | 1 to 500 | 1 to 500 | – | –
COCCN(C(=O)c1cnn(C)c1C1=Cc2cc(OC)ccc2-c2c(C3CCCCC3)c3ccc(C(=O)NS(=O)(=O)C(C)C)cc3n2C1)C(C)C | 1 to 500 | 1 to 500 | – | –

SMILES | IC50 (HCV NS5B; [1]) [nM] | EC50 (HCV replicon cells; [2]) [nM] | IC50 (HCV NS5B) [nM] | EC50 (HCV replicon cells) [nM]
COc1ccc2c(c1)C=C(c1c(C(=O)N3CCC(N4CCCC4)CC3)cnn1C)Cn1c-2c(C2CCCCC2)c2ccc(C(=O)NS(=O)(=O)C(C)C)cc21 | 1 to 500 | 1 to 500 | – | –
COC[C@@H]1CN(C(=O)c2cnn(C)c2C2=Cc3cc(OC)ccc3-c3c(C4CCCCC4)c4ccc(C(=O)NS(=O)(=O)C(C)C)cc4n3C2)CCO1 | 1 to 500 | 1 to 500 | – | –
COc1ccc2c(c1)C=C(c1c(C(=O)N3C[C@@H](C)N(C)[C@@H](C)C3)cnn1C)Cn1c-2c(C2CCCCC2)c2ccc(C(=O)NS(=O)(=O)C(C)C)cc21 | 1 to 500 | 1 to 500 | – | –
COc1ccc2c(c1)C=C(c1c(C(=O)N3CCCC(N(C)C)C3)cnn1C)Cn1c-2c(C2CCCCC2)c2ccc(C(=O)NS(=O)(=O)C(C)C)cc21 (centres unmarked) | 1 to 500 | 1 to 500 | – | –
COc1ccc2c(c1)C=C(c1c(C(=O)N3C[C@@H](C)O[C@@H](C)C3)cnn1C)Cn1c-2c(C2CCCCC2)c2ccc(C(=O)NS(=O)(=O)C(C)C)cc21 | 1 to 500 | 1 to 500 | – | –
COc1ccc2c(c1)C=C(c1c(C(=O)N(C)C)cnn1C)Cn1c-2c(C2CCCCC2)c2ccc(C(=O)NS(=O)(=O)C(C)C)cc21 | 1 to 500 | 1 to 500 | – | –
COc1ccc2c(c1)C=C(c1c(C(=O)N(CCN(C(C)C)C(C)C)C(C)C)cnn1C)Cn1c-2c(C2CCCCC2)c2ccc(C(=O)NS(=O)(=O)C(C)C)cc21 | 1 to 500 | 1 to 500 | – | –
COc1ccc2c(c1)C=C(c1c(C(=O)N3CCOCC3)cnn1C)Cn1c-2c(C2CCCCC2)c2ccc(C(=O)NS(=O)(=O)C3CCCC3)cc21 | 1 to 500 | 1 to 500 | – | –
COC[C@@H]1CN(C(=O)c2cnn(C)c2C2=Cc3cc(OC)ccc3-c3c(C4CCCCC4)c4ccc(C(=O)NS(=O)(=O)C5CCCC5)cc4n3C2)CCO1 | 1 to 500 | 1 to 500 | – | –
CCC(C)S(=O)(=O)NC(=O)c1ccc2c(C3CCCCC3)c3n(c2c1)CC(c1c(C(=O)N2CCOCC2)cnn1C)=Cc1cc(OC)ccc1-3 (centres unmarked) | 1 to 500 | 1 to 500 | – | –
COc1ccc2c(c1)C=C(c1c(C(=O)N3C4CCC3CC(C)(O)C4)cnn1CC(F)(F)F)Cn1c-2c(C2CCCCC2)c2ccc(C(=O)NS(=O)(=O)C(C)C)cc21 (centres unmarked) | – | – | 1 to 500 | 1 to 500
COc1ccc2c(c1)C=C(c1c(C(=O)N3C4CCC3CN(C)C4)c(C(F)(F)F)nn1C)Cn1c-2c(C2CCCCC2)c2ccc(C(=O)NS(=O)(=O)C(C)C)cc21 | – | – | 1 to 500 | 1 to 500
COc1ccc2c(c1)C=C(c1occc1C(=O)N1C3CCC1CN(C)C3)Cn1c-2c(C2CCCCC2)c2ccc(C(=O)NS(=O)(=O)C(C)C)cc21 | – | – | 1 to 500 | 1 to 500
COc1ccc2c(c1)C=C(c1c(C(=O)N3CC4CCC(C3)N4C)c(C(F)(F)F)nn1C)Cn1c-2c(C2CCCCC2)c2ccc(C(=O)NS(=O)(=O)C(C)C)cc21 | – | – | 1 to 500 | 1 to 500
CCn1ncc(C(=O)N2C3CCCC2COC3)c1C1=Cc2cc(OC)ccc2-c2c(C3CCCCC3)c3ccc(C(=O)NS(=O)(=O)C(C)C)cc3n2C1 | – | – | 1 to 500 | 1 to 500
COc1ccc2c(c1)C=C(c1c(C(=O)N3C4CCC3COC4)cnn1CC(F)(F)F)Cn1c-2c(C2CCCCC2)c2ccc(C(=O)NS(=O)(=O)C(C)C)cc21 | – | – | 1 to 500 | 1 to 500
CCn1nc(C)c(C(=O)N2CC3CCC(C2)N3C)c1C1=Cc2cc(OC)ccc2-c2c(C3CCCCC3)c3ccc(C(=O)NS(=O)(=O)C(C)C)cc3n2C1 | – | – | 1 to 500 | 1 to 500
